Experimental data published in US8211935B2, “Heterocyclic derivatives for modulation of calcium channels” (Vertex Pharmaceuticals Incorporated, priority 2004, dated 2012).

Target: T1, CaV2.2 (Homo sapiens, UniProt Q00975)
T1 construct: expressed in transfected cells; host or cells: HEK293
Experiment: VIPR optical membrane potential assay with electrical stimulation
Type: cell-based
Conditions: not given
In short: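 HEK293 cells stably expressing CaV2.2, stained with CC2-DMPE (10 μM final) and oxonol voltage-sensitive dyes, compound added with BaCl2. Membrane potential response evoked by 3-5 s electrical stimulation. Read as background-subtracted 460/580 nm emission ratio, response R=Rf/Ri, normalized to mibefradil positive and no-drug negative controls.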

T1 sequence (Q00975 whole entry): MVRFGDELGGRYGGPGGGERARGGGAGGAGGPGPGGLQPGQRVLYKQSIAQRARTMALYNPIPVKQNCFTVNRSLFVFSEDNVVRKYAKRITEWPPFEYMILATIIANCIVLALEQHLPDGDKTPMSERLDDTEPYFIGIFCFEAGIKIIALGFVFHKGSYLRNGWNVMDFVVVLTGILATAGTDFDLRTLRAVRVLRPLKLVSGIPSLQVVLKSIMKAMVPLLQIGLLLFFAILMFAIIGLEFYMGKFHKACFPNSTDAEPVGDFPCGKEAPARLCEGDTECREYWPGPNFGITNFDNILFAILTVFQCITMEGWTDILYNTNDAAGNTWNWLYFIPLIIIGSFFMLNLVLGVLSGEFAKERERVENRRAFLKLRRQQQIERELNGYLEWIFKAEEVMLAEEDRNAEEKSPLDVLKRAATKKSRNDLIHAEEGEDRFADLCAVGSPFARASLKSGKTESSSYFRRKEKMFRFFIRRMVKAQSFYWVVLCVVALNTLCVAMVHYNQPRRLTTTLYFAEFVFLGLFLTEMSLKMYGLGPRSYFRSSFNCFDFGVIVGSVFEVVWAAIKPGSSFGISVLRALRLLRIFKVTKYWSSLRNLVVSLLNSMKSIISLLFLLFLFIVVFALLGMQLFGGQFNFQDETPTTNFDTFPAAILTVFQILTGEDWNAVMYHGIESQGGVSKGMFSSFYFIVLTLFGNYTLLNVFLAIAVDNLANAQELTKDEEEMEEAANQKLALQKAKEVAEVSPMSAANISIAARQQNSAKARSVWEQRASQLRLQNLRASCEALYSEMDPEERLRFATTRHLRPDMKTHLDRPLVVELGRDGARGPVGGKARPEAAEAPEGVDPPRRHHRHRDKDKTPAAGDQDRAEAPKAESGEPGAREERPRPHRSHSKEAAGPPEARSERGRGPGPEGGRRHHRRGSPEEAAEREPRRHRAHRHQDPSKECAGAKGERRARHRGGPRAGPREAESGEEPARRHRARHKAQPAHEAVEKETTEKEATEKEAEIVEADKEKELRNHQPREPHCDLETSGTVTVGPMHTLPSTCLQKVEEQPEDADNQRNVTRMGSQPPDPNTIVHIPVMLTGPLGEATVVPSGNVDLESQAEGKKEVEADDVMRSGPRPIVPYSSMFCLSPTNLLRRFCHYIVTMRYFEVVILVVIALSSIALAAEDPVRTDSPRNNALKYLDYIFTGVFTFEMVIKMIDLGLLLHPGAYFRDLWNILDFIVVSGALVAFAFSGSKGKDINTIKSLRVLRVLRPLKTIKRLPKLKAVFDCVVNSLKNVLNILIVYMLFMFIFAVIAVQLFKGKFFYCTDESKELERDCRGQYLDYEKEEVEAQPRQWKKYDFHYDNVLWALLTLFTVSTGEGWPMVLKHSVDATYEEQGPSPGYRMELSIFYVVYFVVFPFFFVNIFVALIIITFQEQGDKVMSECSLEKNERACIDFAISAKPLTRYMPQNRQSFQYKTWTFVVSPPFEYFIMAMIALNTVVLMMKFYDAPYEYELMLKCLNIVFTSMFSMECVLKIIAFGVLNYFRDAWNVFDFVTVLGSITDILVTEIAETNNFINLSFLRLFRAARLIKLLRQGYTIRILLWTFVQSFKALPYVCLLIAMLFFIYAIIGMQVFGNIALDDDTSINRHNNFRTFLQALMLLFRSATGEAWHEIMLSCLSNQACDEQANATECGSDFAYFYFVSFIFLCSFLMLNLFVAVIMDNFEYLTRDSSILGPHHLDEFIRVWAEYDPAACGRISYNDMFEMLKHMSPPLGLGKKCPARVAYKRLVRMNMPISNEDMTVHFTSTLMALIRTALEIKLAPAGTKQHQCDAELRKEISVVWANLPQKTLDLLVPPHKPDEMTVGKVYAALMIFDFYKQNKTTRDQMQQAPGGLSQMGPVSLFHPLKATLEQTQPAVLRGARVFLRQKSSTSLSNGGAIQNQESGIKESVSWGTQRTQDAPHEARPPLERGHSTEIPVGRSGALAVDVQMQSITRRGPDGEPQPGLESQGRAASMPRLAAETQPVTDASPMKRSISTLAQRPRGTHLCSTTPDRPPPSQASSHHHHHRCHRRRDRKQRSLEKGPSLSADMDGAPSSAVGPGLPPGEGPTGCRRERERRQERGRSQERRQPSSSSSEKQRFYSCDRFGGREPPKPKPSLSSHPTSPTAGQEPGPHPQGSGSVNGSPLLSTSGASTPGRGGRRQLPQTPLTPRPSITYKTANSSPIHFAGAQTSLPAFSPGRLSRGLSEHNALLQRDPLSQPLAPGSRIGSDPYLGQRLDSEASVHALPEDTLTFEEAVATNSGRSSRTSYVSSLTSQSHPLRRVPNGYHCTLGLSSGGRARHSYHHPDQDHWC
T1 sequence (P54284 whole entry partner): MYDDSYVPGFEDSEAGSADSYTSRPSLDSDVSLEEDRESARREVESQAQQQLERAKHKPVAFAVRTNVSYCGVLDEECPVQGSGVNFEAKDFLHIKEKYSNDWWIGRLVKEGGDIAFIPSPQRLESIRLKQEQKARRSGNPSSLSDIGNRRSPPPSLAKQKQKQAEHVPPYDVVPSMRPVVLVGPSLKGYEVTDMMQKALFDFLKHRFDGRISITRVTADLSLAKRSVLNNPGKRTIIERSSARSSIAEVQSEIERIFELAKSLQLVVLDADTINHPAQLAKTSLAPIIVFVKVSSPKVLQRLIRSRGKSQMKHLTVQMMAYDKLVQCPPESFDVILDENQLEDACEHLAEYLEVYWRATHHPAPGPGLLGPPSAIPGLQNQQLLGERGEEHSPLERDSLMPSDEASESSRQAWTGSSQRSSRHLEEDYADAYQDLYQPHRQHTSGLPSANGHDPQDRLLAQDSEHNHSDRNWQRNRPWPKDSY
T1 sequence (P54289 25-946 partner limits assumed): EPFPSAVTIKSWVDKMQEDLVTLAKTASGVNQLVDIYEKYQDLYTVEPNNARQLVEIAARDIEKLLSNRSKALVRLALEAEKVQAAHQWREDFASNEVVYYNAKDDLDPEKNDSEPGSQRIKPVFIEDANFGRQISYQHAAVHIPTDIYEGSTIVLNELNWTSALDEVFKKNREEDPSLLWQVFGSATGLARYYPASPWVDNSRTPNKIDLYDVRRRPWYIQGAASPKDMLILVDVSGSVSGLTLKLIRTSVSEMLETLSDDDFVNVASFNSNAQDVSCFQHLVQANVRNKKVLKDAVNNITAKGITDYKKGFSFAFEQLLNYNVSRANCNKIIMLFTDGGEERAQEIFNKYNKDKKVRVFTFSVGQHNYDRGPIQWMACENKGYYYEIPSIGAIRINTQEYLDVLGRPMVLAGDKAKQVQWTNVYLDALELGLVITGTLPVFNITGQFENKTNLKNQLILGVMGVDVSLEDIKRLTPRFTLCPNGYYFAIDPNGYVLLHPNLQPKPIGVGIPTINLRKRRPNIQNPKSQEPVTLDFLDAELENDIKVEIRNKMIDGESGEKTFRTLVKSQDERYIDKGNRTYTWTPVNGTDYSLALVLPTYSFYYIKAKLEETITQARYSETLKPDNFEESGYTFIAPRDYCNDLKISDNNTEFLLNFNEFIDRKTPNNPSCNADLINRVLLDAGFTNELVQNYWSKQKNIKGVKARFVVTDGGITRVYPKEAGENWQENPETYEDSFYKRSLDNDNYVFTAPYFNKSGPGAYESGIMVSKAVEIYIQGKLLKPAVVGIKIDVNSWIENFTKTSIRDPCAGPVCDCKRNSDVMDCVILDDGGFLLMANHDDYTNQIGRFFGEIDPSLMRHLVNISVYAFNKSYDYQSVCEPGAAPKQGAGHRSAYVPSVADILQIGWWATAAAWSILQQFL
T1 sequence (P54289 947-1103 partner limits assumed): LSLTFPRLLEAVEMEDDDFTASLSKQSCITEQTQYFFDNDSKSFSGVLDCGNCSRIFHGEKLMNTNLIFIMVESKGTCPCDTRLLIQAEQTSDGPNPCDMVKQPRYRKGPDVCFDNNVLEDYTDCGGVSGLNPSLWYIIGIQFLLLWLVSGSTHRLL

Work on `Cc1c(C(=O)N2CCC3(CC2)OCCO3)oc2ccc(S(=O)(=O)N3CCCCCC3)cc12` [compound 161] yielded an IC50 of 5 to 20 µM.

Same assay, conditions: Table 3, biological assay data; read-out: IC50

Compared with `CC1CCN(S(=O)(=O)c2ccc3[nH]c(C(=O)NC4CCCCC4)cc3c2)CC1` [compound 448], `CNC(=O)c1cc2cc(S(=O)(=O)N3CCC(C)CC3)ccc2[nH]1` [compound 192] is lower in IC50: 5 to 20 µM for the first, less than 5 µM for the second.

`Cc1c(C(=O)NCC2CCCO2)oc2ccc(S(=O)(=O)N3CCCCC3)cc12` (stereo not shown) [compound 352] and `Cc1c(C(=O)NCC2CCCO2)oc2ccc(S(=O)(=O)N3CCCC(C)C3)cc12` (stereo not shown) [compound 205] fall in the same range of IC50: 5 to 20 µM for the first, 5 to 20 µM for the second.

`CCOC(=O)N1CCN(C(=O)c2oc3ccc(S(=O)(=O)N4CCC(C)CC4)cc3c2C)CC1` [compound 88] and `CCOC(=O)N1CCN(C(=O)c2oc3ccc(S(=O)(=O)N4CCCC(C)C4)cc3c2C)CC1` (stereo not shown) [compound 403] cannot be ordered by IC50: less than 5 µM for the first, less than 5 µM for the second.

`CC1CC(C)CN(S(=O)(=O)c2ccc3oc(C(=O)NCC4CCOCC4)cc3c2)C1` (stereo not shown) [compound 327] and `Cc1c(C(=O)NCCC2CCOCC2)oc2ccc(S(=O)(=O)N3CCCC(C)C3)cc12` (stereo not shown) [compound 467] cannot be ordered by IC50: less than 5 µM for the first, less than 5 µM for the second.

`CCOC(=O)N1CCN(C(=O)c2cc3cc(S(=O)(=O)N4CC(C)CC(C)C4)ccc3[nH]2)CC1` (stereo not shown) [compound 415] and `CC1CCCN(C(=O)c2cc3cc(S(=O)(=O)N4CC(C)CC(C)C4)ccc3[nH]2)C1` (stereo not shown) [compound 171] cannot be ordered by IC50: less than 5 µM for the first, less than 5 µM for the second.

First: CCOC(=O)C1CCN(C(=O)c2oc3ccc(S(=O)(=O)N4CCCCCC4)cc3c2C)CC1 [compound 19]
Second: Cc1c(C(=O)N2CCC(C)CC2)oc2ccc(S(=O)(=O)N3CCCCC3)cc12 [compound 279]
The IC50 of the first is lower: less than 5 µM for the first, 5 to 20 µM for the second. The first is the more potent here.

First: Cc1c(C(=O)N2CCC(C)CC2)[nH]c2ccc(S(=O)(=O)N3CCCCCC3)cc12 [compound 342]
Second: CC1CCN(C(=O)c2cc3cc(S(=O)(=O)N4CCCCCC4)ccc3[nH]2)CC1 [compound 364]
The IC50 of the first is lower: less than 5 µM for the first, 5 to 20 µM for the second. The first is the more potent here.

`CCOC(=O)N1CCN(C(=O)c2cc3cc(S(=O)(=O)N4CCC(C)CC4)ccc3o2)CC1` [compound 158] and `CC1CCN(S(=O)(=O)c2ccc3oc(C(=O)N4CCCCCC4)cc3c2)CC1` [compound 246] cannot be ordered by IC50: less than 20 µM for the first, less than 5 µM for the second.

`CCCCN(C)C(=O)c1cc2cc(S(=O)(=O)N3CCC(C)CC3)ccc2[nH]1` [compound 141] and `Cc1c(C(=O)N(C)Cc2ccccc2)[nH]c2ccc(S(=O)(=O)N3CCC(C)CC3)cc12` [compound 206] cannot be ordered by IC50: less than 5 µM for the first, less than 5 µM for the second.

`Cc1c(C(=O)NC2CCC(C)CC2)oc2ccc(S(=O)(=O)N3CCOCC3)cc12` (stereo not shown) [compound 39] and `Cc1c(C(=O)NC2CC2)oc2ccc(S(=O)(=O)N3CCCCC3)cc12` [compound 257] cannot be ordered by IC50: less than 20 µM for the first, less than 20 µM for the second.

First: CCN(CC)S(=O)(=O)c1ccc2oc(C(=O)NC3CCCC3)c(C)c2c1 [compound 87]
Second: CCN(CC)S(=O)(=O)c1ccc2oc(C(=O)N3CCCCCC3)c(C)c2c1 [compound 341]
The IC50 of the first is lower: less than 5 µM for the first, 5 to 20 µM for the second.

`Cc1c(C(=O)NC2CC2)oc2ccc(S(=O)(=O)N(C)c3ccccn3)cc12` [compound 261] and `Cc1c(C(=O)NC2CC2)oc2ccc(S(=O)(=O)Nc3ccc(F)cc3)cc12` [compound 228] cannot be ordered by IC50: less than 20 µM for the first, less than 20 µM for the second.

`Cc1c(C(=O)N(C)Cc2ccccc2)[nH]c2ccc(S(=O)(=O)N3CC(C)CC(C)C3)cc12` (stereo not shown) [compound 373] and `Cc1c(C(=O)NCC2CCCO2)[nH]c2ccc(S(=O)(=O)N3CC(C)CC(C)C3)cc12` (stereo not shown) [compound 281] cannot be ordered by IC50: less than 5 µM for the first, less than 5 µM for the second.

Compared with `CNC(=O)c1cc2cc(S(=O)(=O)N3CCCCCC3)ccc2o1` [compound 295], `CC1CCN(C(=O)c2cc3cc(S(=O)(=O)N4CCCCCC4)ccc3o2)CC1` [compound 190] is lower in IC50: 5 to 20 µM for the first, less than 5 µM for the second.

`Cc1c(C(=O)N2CCCCC2C)oc2ccc(S(=O)(=O)N3CCOCC3)cc12` (stereo not shown) [compound 14] and `Cc1c(C(=O)N(C)C)oc2ccc(S(=O)(=O)N3CCOCC3)cc12` [compound 259] cannot be ordered by IC50: less than 20 µM for the first, less than 20 µM for the second.

`CC1CC(C)CN(S(=O)(=O)c2ccc3[nH]c(C(=O)N(C(C)C)C(C)C)cc3c2)C1` (stereo not shown) [compound 217] and `Cc1c(C(=O)NCc2ccccc2)oc2ccc(S(=O)(=O)N3CCC4(CC3)OCCO4)cc12` [compound 118] cannot be ordered by IC50: less than 5 µM for the first, less than 20 µM for the second.

Test system: not given
Experiment: not given
Conditions: neuropathic pain; cited from earlier work

For `NCC1(CC(=O)O)CCCCC1` [Gabapentin], the “patients in whom the drug works” value is listed as 60%.
